“And” between values parts separate entries of the source, which are not always exact repeats. Equal values may be shown once.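 Assay format: 96-well plates, 48-hour exposure. GI50: concentration for 50% inhibition of growth. TGI is the concentration that stops growth completely.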

The record followed here is PubChem BioAssay (NCI).

The first assay deals with HCT-116 colon. The experiment in a line: NCI-60 cell line screen, 48 h.
Consider `CCOC(=O)[C@]1(OC(C)=O)C[C@H](OC(C)=O)[C@@H](C(F)COP(=O)(OCc2ccccc2)OCc2ccccc2)O1` (some centres not stated), for which the GI50 is 23.4 µM and > 100 µM; the TGI was 57.9 µM and > 100 µM.
In the case of `CC[C@@]1(O)C[C@H](OC2CC(N(C)C)C(O)C(C)O2)c2c(O)c3c(c(O)c2[C@H]1OC1CC(N(C)C)C(O)C(C)O1)C(=O)c1cccc(O)c1C3=O` (some centres not stated), the GI50 was under 0.01 µM.
Take `CC1(C)CCc2c(c3c(c4c(=O)c(O)c(-c5ccc(O)cc5)oc24)OC(C)(C)CC3)O1`: the GI50 was 57.6 µM and the TGI was over 100 µM.
The corresponding values for `CCCCCN(CCCCC)CC(O)c1cc(C)c2ccc3cc(C(C)C)ccc3c2c1` (configuration not stated) are 1.73 µM and 3.32 µM.
`COC(=O)CC1CCN(C#N)CC1CC[N+](=O)[O-]` (configuration not stated) registered a TGI of over 100 µM.
For `CC(C)CCC[C@@H](C)[C@H]1CC[C@H]2[C@@H]3CC=C4C[C@@H](C(C(=O)O)C(=O)O)CC[C@]4(C)[C@H]3CC[C@]12C`, the GI50 is 0.101 µM and the TGI amounted to 0.798 µM.
The corresponding values for `COc1ccc(-c2nc3sccn3c2/C(N)=N/C(=N)N)cc1OC` are 19.1 µM and 45.2 µM.
The matching figures for `CC1=C(C(=O)Nc2ccc(Cl)c(Cl)c2)C(c2cccc(Oc3ccccc3)c2)NC(=S)N1` (configuration not stated): 20.6 µM and over 50 µM.
`Nc1ccccc1SC(C[N+](=O)[O-])c1ccc2c(c1)OCO2` (configuration not stated) displayed a TGI of 3.71 µM.
The same measure, in the same setting: next, `CCCCCCCCCCCCCCCCCC(CCCCCCCCCCCCCCCCC)OP(=O)(O)O`: over 100 µM.
Consider `Cc1ccc(NC2=C(Cl)C(=O)N(Cc3ccccc3)C2=O)cc1O`, for which the GI50 is 37.7 µM and the TGI was over 100 µM.
With `N#CCCN(CCC#N)c1ccc(/C=C2\N=C(c3cc([N+](=O)[O-])ccc3Cl)OC2=O)cc1`, the TGI was over 100 µM.
On the same count and under the same terms, next, `O=C1C2C(C(=O)N1OS(=O)(=O)c1ccccc1)N(Cc1ccccc1)C(=O)N2Cc1ccccc1` (configuration not stated): over 100 µM; `O=C(COc1ccc(Br)cc1Br)N1N=C(c2ccc([N+](=O)[O-])o2)CC1(O)c1ccccc1` (configuration not stated): 33.2 µM.
For the molecule `O=C(Nc1ccccc1OC(F)(F)F)Nc1n[nH]c2ccccc12`, the GI50 is 16.2 µM and the TGI was over 100 µM.
Consider `Cc1nc2ccccc2c(=O)n1-c1ccccc1I`, for which the TGI was over 100 µM.
On the same count and under the same terms, next, `O=C1/C(=C/c2ccccc2)CN(C(=O)C(Cl)(Cl)Cl)C/C1=C\c1ccccc1`: 1.36 µM; `CN(C)C(=N)c1ccccc1`: over 100 µM.
With `Cc1cc(I)cc(CN(C)CCCCN2CCCCC2)c1O`, the GI50 is 8.78 µM and the TGI is 21.1 µM.
Molecule `CN/N=C(/Cc1occc(=O)c1O)C(=O)Nc1ccccc1C` displayed a TGI of over 100 µM.

A further assay concerns ACHN renal. The experiment in a line: NCI-60 cell line screen, 48 h.
With `CCOC(=O)[C@]1(OC(C)=O)C[C@H](OC(C)=O)[C@@H](C(F)COP(=O)(OCc2ccccc2)OCc2ccccc2)O1` (some centres not stated), the GI50 is 34.8 µM and > 100 µM; the TGI was over 100 µM.
On to `CC[C@@]1(O)C[C@H](OC2CC(N(C)C)C(O)C(C)O2)c2c(O)c3c(c(O)c2[C@H]1OC1CC(N(C)C)C(O)C(C)O1)C(=O)c1cccc(O)c1C3=O` (some centres not stated), for which the GI50 was 0.03 µM and < 0.01 µM; the TGI was under 0.01 µM.
In the case of `CC1(C)CCc2c(c3c(c4c(=O)c(O)c(-c5ccc(O)cc5)oc24)OC(C)(C)CC3)O1`, the GI50 is 48.9 µM and the TGI was over 100 µM.
The corresponding values for `CCCCCN(CCCCC)CC(O)c1cc(C)c2ccc3cc(C(C)C)ccc3c2c1` (configuration not stated) are 1.6 µM and 3.05 µM.
In turn, `COC(=O)CC1CCN(C#N)CC1CC[N+](=O)[O-]` (configuration not stated) returned a TGI of over 100 µM.
Take `CC(C)CCC[C@@H](C)[C@H]1CC[C@H]2[C@@H]3CC=C4C[C@@H](C(C(=O)O)C(=O)O)CC[C@]4(C)[C@H]3CC[C@]12C`: the GI50 was 0.15 µM and the TGI came to 0.662 µM.
The corresponding values for `COc1ccc(-c2nc3sccn3c2/C(N)=N/C(=N)N)cc1OC` are over 100 µM and over 100 µM.
The corresponding values for `CC1=C(C(=O)Nc2ccc(Cl)c(Cl)c2)C(c2cccc(Oc3ccccc3)c2)NC(=S)N1` (configuration not stated) are 8.07 µM and 15.1 µM.
Consider `Nc1ccccc1SC(C[N+](=O)[O-])c1ccc2c(c1)OCO2` (configuration not stated), for which the TGI turned out to be 19 µM.
The same measure, in the same setting: then `CCCCCCCCCCCCCCCCCC(CCCCCCCCCCCCCCCCC)OP(=O)(O)O`, with over 100 µM.
The same measure, in the same setting: next, `N#CCCN(CCC#N)c1ccc(/C=C2\N=C(c3cc([N+](=O)[O-])ccc3Cl)OC2=O)cc1`: over 100 µM.
Same read-out and setting: then `O=C1C2C(C(=O)N1OS(=O)(=O)c1ccccc1)N(Cc1ccccc1)C(=O)N2Cc1ccccc1` (configuration not stated), with over 100 µM; and `O=C(COc1ccc(Br)cc1Br)N1N=C(c2ccc([N+](=O)[O-])o2)CC1(O)c1ccccc1` (configuration not stated), with over 100 µM.
For `O=C(Nc1ccccc1OC(F)(F)F)Nc1n[nH]c2ccccc12`, the GI50 is 31.1 µM and the TGI was over 100 µM.
`N#CC(c1ccc(Cl)cc1)c1cccc(C(C#N)c2ccc(Cl)cc2)n1` (configuration not stated) returned a TGI of over 100 µM.
The same measure, in the same setting: next, `Cc1nc2ccccc2c(=O)n1-c1ccccc1I`: over 100 µM; `O=C1/C(=C/c2ccccc2)CN(C(=O)C(Cl)(Cl)Cl)C/C1=C\c1ccccc1`: 4.62 µM.
As to `Cc1cc(I)cc(CN(C)CCCCN2CCCCC2)c1O`, the GI50 is 27.3 µM and the TGI is 76.7 µM.
Take `CN/N=C(/Cc1occc(=O)c1O)C(=O)Nc1ccccc1C`: the TGI was over 100 µM.

For another assay, the system named is CCRF-CEM leukemia. The experiment in a line: NCI-60 cell line screen, 48 h.
`CCOC(=O)[C@]1(OC(C)=O)C[C@H](OC(C)=O)[C@@H](C(F)COP(=O)(OCc2ccccc2)OCc2ccccc2)O1` (some centres not stated) came in with a TGI of over 100 µM.
In the case of `CC[C@@]1(O)C[C@H](OC2CC(N(C)C)C(O)C(C)O2)c2c(O)c3c(c(O)c2[C@H]1OC1CC(N(C)C)C(O)C(C)O1)C(=O)c1cccc(O)c1C3=O` (some centres not stated), the GI50 was under 0.01 µM and the TGI came to 0.204 µM.
The corresponding values for `CC1(C)CCc2c(c3c(c4c(=O)c(O)c(-c5ccc(O)cc5)oc24)OC(C)(C)CC3)O1` are over 100 µM and over 100 µM.
The matching figures for `CCCCCN(CCCCC)CC(O)c1cc(C)c2ccc3cc(C(C)C)ccc3c2c1` (configuration not stated): 2.19 µM and 5.53 µM.
In turn, `COC(=O)CC1CCN(C#N)CC1CC[N+](=O)[O-]` (configuration not stated) returned a TGI of over 100 µM.
Consider `CC(C)CCC[C@@H](C)[C@H]1CC[C@H]2[C@@H]3CC=C4C[C@@H](C(C(=O)O)C(=O)O)CC[C@]4(C)[C@H]3CC[C@]12C`, for which the GI50 was 0.112 µM and the TGI turned out to be 0.913 µM.
